{
  "source": "PubChem BioAssay AID1259407",
  "about": "(Chemical Carcinogenesis Research Information System (CCRIS), 2018)",
  "tested_on": "CCRIS mutagenicity, Ames/micronucleus/aberration tests",
  "assay": "CCRIS mutagenicity studies",
  "key": {"[1]": {"conditions": "Test System: AMES SALMONELLA TYPHIMURIUM, Strain/Indicator: TA98, Metabolic Activation: NONE, Method: PREINCUBATION"}, "[2]": {"conditions": "Test System: AMES SALMONELLA TYPHIMURIUM, Strain/Indicator: TA100, Metabolic Activation: NONE, Method: PREINCUBATION"}, "[3]": {"conditions": "Test System: AMES SALMONELLA TYPHIMURIUM, Strain/Indicator: TA1535, Metabolic Activation: NONE, Method: PREINCUBATION"}, "[4]": {"conditions": "Test System: AMES SALMONELLA TYPHIMURIUM, Strain/Indicator: TA1537, Metabolic Activation: NONE, Method: PREINCUBATION"}},
  "note": "Calls of active or inactive are those of the source. How the calls were made is not given here.",
  "data": [
    {"smiles": "O=Cc1cc(=O)[nH]c(=O)[nH]1", "values": [
      {"measurement": "mutagenic call", "setting": "Test System: CHINESE HAMSTER V-79, Strain/Indicator: V-79 (HPRT)/6-THIOGUANINE, Metabolic Activation: NONE, Method: STANDARD PLATE", "value": "active; positive"}
    ]},
    {"smiles": "CC1(C)C[C@H]2C=C(C=O)[C@@]3(C=O)C[C@@]3(C)[C@H]2C1", "values": [
      {"measurement": "mutagenic call", "setting": "Test System: CHINESE HAMSTER V-79, Strain/Indicator: V-79/6-THIOGUANINE (HGPRT), Metabolic Activation: NONE", "value": "inactive; negative"}
    ]},
    {"smiles": "Cc1cnc[nH]1", "values": [
      {"measurement": "mutagenic call", "setting": "End Point: In vivo micronucleus, Test System: Bone marrow polychromatic erythrocytes, Species: Mouse, Strain/Sex: B6C3F1/Male, Route: Intraperitoneal", "value": "inactive; positive in trial 1; negative in trial 2; percentage of pces declined with incre"},
      {"measurement": "mutagenic call", "setting": "End Point: In vivo micronucleus, Test System: Polychromatic erythrocytes and Normochromatic erythrocytes, Species: Mouse, Strain/Sex: B6C3F1/Female, Route: Oral", "value": "inactive; negative (no increase in micronucleus frequencies at all levels; percentage of"},
      {"measurement": "mutagenic call", "setting": "End Point: In vivo micronucleus, Test System: Polychromatic erythrocytes and Normochromatic erythrocytes, Species: Mouse, Strain/Sex: B6C3F1/Male, Route: Oral", "value": "inactive; negative (no increase in micronucleus frequencies at all levels; percentage of"},
      {"measurement": "mutagenic call", "setting": "[1]", "value": "inactive; negative"},
      {"measurement": "mutagenic call", "setting": "Test System: AMES SALMONELLA TYPHIMURIUM, Strain/Indicator: TA98, Metabolic Activation: RAT LIVER S-9, PHENOBARBITAL AND BETA-NAPHTHOFLAVONE, Method: PREINCUBATION", "value": "inactive; negative"},
      {"measurement": "mutagenic call", "setting": "[2]", "value": "inactive; negative"},
      {"measurement": "mutagenic call", "setting": "Test System: AMES SALMONELLA TYPHIMURIUM, Strain/Indicator: TA100, Metabolic Activation: RAT LIVER S-9, PHENOBARBITAL AND BETA-NAPHTHOFLAVONE, Method: PREINCUBATION", "value": "inactive; negative"},
      {"measurement": "mutagenic call", "setting": "Test System: AMES SALMONELLA TYPHIMURIUM, Strain/Indicator: TA102, Metabolic Activation: NONE, Method: PREINCUBATION", "value": "inactive; negative"},
      {"measurement": "mutagenic call", "setting": "Test System: AMES SALMONELLA TYPHIMURIUM, Strain/Indicator: TA102, Metabolic Activation: RAT LIVER S-9, PHENOBARBITAL AND BETA-NAPHTHOFLAVONE, Method: PREINCUBATION", "value": "inactive; negative"},
      {"measurement": "mutagenic call", "setting": "Test System: AMES SALMONELLA TYPHIMURIUM, Strain/Indicator: TA104, Metabolic Activation: NONE, Method: PREINCUBATION", "value": "inactive; negative"},
      {"measurement": "mutagenic call", "setting": "Test System: AMES SALMONELLA TYPHIMURIUM, Strain/Indicator: TA104, Metabolic Activation: RAT LIVER S-9, PHENOBARBITAL AND BETA-NAPHTHOFLAVONE, Method: PREINCUBATION", "value": "inactive; negative"},
      {"measurement": "mutagenic call", "setting": "[3]", "value": "inactive; negative"},
      {"measurement": "mutagenic call", "setting": "Test System: AMES SALMONELLA TYPHIMURIUM, Strain/Indicator: TA1535, Metabolic Activation: RAT LIVER S-9, PHENOBARBITAL AND BETA-NAPHTHOFLAVONE, Method: PREINCUBATION", "value": "inactive; negative"},
      {"measurement": "mutagenic call", "setting": "[4]", "value": "inactive; negative"},
      {"measurement": "mutagenic call", "setting": "Test System: AMES SALMONELLA TYPHIMURIUM, Strain/Indicator: TA1537, Metabolic Activation: RAT LIVER S-9, PHENOBARBITAL AND BETA-NAPHTHOFLAVONE, Method: PREINCUBATION", "value": "inactive; negative"},
      {"measurement": "mutagenic call", "setting": "Test System: Ames Salmonella typhimurium, Strain/Indicator: TA97, Metabolic Activation: Hamster, liver, S-9, Aroclor 1254, Method: Preincubation", "value": "inactive; negative"},
      {"measurement": "mutagenic call", "setting": "Test System: Ames Salmonella typhimurium, Strain/Indicator: TA97, Metabolic Activation: None, Method: Preincubation", "value": "inactive; negative"},
      {"measurement": "mutagenic call", "setting": "Test System: Ames Salmonella typhimurium, Strain/Indicator: TA97, Metabolic Activation: Rat, liver, S-9, Aroclor 1254, Method: Preincubation", "value": "inactive; negative"},
      {"measurement": "mutagenic call", "setting": "Test System: Ames Salmonella typhimurium, Strain/Indicator: TA98, Metabolic Activation: Hamster, liver, S-9, Aroclor 1254, Method: Preincubation", "value": "inactive; negative"},
      {"measurement": "mutagenic call", "setting": "Test System: Ames Salmonella typhimurium, Strain/Indicator: TA98, Metabolic Activation: None, Method: Preincubation", "value": "inactive; negative"},
      {"measurement": "mutagenic call", "setting": "Test System: Ames Salmonella typhimurium, Strain/Indicator: TA98, Metabolic Activation: Rat, liver, S-9, Aroclor 1254, Method: Preincubation", "value": "inactive; negative"},
      {"measurement": "mutagenic call", "setting": "Test System: Ames Salmonella typhimurium, Strain/Indicator: TA100, Metabolic Activation: Hamster, liver, S-9, Aroclor 1254, Method: Preincubation", "value": "inactive; negative"},
      {"measurement": "mutagenic call", "setting": "Test System: Ames Salmonella typhimurium, Strain/Indicator: TA100, Metabolic Activation: None, Method: Preincubation", "value": "inactive; negative"},
      {"measurement": "mutagenic call", "setting": "Test System: Ames Salmonella typhimurium, Strain/Indicator: TA100, Metabolic Activation: Rat, liver, S-9, Aroclor 1254, Method: Preincubation", "value": "inactive; negative"},
      {"measurement": "mutagenic call", "setting": "Test System: Ames Salmonella typhimurium, Strain/Indicator: TA1535, Metabolic Activation: Hamster, liver, S-9, Aroclor 1254, Method: Preincubation", "value": "inactive; negative"},
      {"measurement": "mutagenic call", "setting": "Test System: Ames Salmonella typhimurium, Strain/Indicator: TA1535, Metabolic Activation: None, Method: Preincubation", "value": "inactive; negative"},
      {"measurement": "mutagenic call", "setting": "Test System: Ames Salmonella typhimurium, Strain/Indicator: TA1535, Metabolic Activation: Rat, liver, S-9, Aroclor 1254, Method: Preincubation", "value": "inactive; negative"},
      {"measurement": "mutagenic call", "setting": "Test System: E.COLI, Strain/Indicator: WP2UVRA/PKM101, Metabolic Activation: NONE, Method: PREINCUBATION", "value": "inactive; negative"},
      {"measurement": "mutagenic call", "setting": "Test System: E.COLI, Strain/Indicator: WP2UVRA/PKM101, Metabolic Activation: RAT LIVER S-9, PHENOBARBITAL AND BETA-NAPHTHOFLAVONE, Method: PREINCUBATION", "value": "inactive; negative"},
      {"measurement": "mutagenic call", "setting": "Test System: E.COLI, Strain/Indicator: WP2UVRA, Metabolic Activation: NONE, Method: PREINCUBATION", "value": "inactive; negative"},
      {"measurement": "mutagenic call", "setting": "Test System: E.COLI, Strain/Indicator: WP2UVRA, Metabolic Activation: RAT LIVER S-9, PHENOBARBITAL AND BETA-NAPHTHOFLAVONE, Method: PREINCUBATION", "value": "inactive; negative"}
    ]},
    {"smiles": "Nc1c(O)ccc2ccccc12", "values": [
      {"measurement": "mutagenic call", "setting": "Test System: AMES SALMONELLA TYPHIMURIUM, Strain/Indicator: TA100, Metabolic Activation: RAT, LIVER, S-9, AROCLOR 1254, Method: PREINCUBATION", "value": "inactive; negative"}
    ]},
    {"smiles": "CN(Cc1cnc2nc(N)nc(N)c2n1)c1c(Cl)cc(C(=O)N[C@@H](CCC(=O)O)C(=O)O)cc1Cl", "values": [
      {"measurement": "mutagenic call", "setting": "Test System: AMES SALMONELLA TYPHIMURIUM, Strain/Indicator: TA97, Metabolic Activation: HAMSTER, LIVER, S-9, AROCLOR 1254 (10 OR 30%), Method: PREINCUBATION", "value": "inactive; negative"},
      {"measurement": "mutagenic call", "setting": "Test System: AMES SALMONELLA TYPHIMURIUM, Strain/Indicator: TA97, Metabolic Activation: NONE, Method: PREINCUBATION", "value": "inactive; negative"},
      {"measurement": "mutagenic call", "setting": "Test System: AMES SALMONELLA TYPHIMURIUM, Strain/Indicator: TA97, Metabolic Activation: RAT, LIVER, S-9, AROCLOR 1254 (10 OR 30%), Method: PREINCUBATION", "value": "inactive; negative"},
      {"measurement": "mutagenic call", "setting": "Test System: AMES SALMONELLA TYPHIMURIUM, Strain/Indicator: TA98, Metabolic Activation: HAMSTER, LIVER, S-9, AROCLOR 1254 (10 OR 30%), Method: PREINCUBATION", "value": "inactive; negative"},
      {"measurement": "mutagenic call", "setting": "[1]", "value": "inactive; negative"},
      {"measurement": "mutagenic call", "setting": "Test System: AMES SALMONELLA TYPHIMURIUM, Strain/Indicator: TA98, Metabolic Activation: RAT, LIVER, S-9, AROCLOR 1254 (10 OR 30%), Method: PREINCUBATION", "value": "inactive; negative"},
      {"measurement": "mutagenic call", "setting": "Test System: AMES SALMONELLA TYPHIMURIUM, Strain/Indicator: TA100, Metabolic Activation: HAMSTER, LIVER, S-9, AROCLOR 1254 (10 OR 30%), Method: PREINCUBATION", "value": "inactive; negative"},
      {"measurement": "mutagenic call", "setting": "[2]", "value": "inactive; negative"},
      {"measurement": "mutagenic call", "setting": "Test System: AMES SALMONELLA TYPHIMURIUM, Strain/Indicator: TA100, Metabolic Activation: RAT, LIVER, S-9, AROCLOR 1254 (10 OR 30%), Method: PREINCUBATION", "value": "inactive; negative"},
      {"measurement": "mutagenic call", "setting": "Test System: AMES SALMONELLA TYPHIMURIUM, Strain/Indicator: TA1535, Metabolic Activation: HAMSTER, LIVER, S-9, AROCLOR 1254 (10 OR 30%), Method: PREINCUBATION", "value": "inactive; negative"},
      {"measurement": "mutagenic call", "setting": "[3]", "value": "inactive; negative"},
      {"measurement": "mutagenic call", "setting": "Test System: AMES SALMONELLA TYPHIMURIUM, Strain/Indicator: TA1535, Metabolic Activation: RAT, LIVER, S-9, AROCLOR 1254 (10 OR 30%), Method: PREINCUBATION", "value": "inactive; negative"},
      {"measurement": "mutagenic call", "setting": "Test System: AMES SALMONELLA TYPHIMURIUM, Strain/Indicator: TA1537, Metabolic Activation: HAMSTER, LIVER, S-9, AROCLOR 1254 (10 OR 30%), Method: PREINCUBATION", "value": "inactive; negative"},
      {"measurement": "mutagenic call", "setting": "[4]", "value": "inactive; negative"},
      {"measurement": "mutagenic call", "setting": "Test System: AMES SALMONELLA TYPHIMURIUM, Strain/Indicator: TA1537, Metabolic Activation: RAT, LIVER, S-9, AROCLOR 1254 (10 OR 30%), Method: PREINCUBATION", "value": "inactive; negative"}
    ]},
    {"smiles": "COc1ccc2nc3occc3c(OC)c2c1", "values": [
      {"measurement": "mutagenic call", "setting": "Test System: AMES SALMONELLA TYPHIMURIUM, Strain/Indicator: TA98, Metabolic Activation: RAT, LIVER, S-9, PHENOBARBITAL, Method: STANDARD PLATE", "value": "active; positive"},
      {"measurement": "mutagenic call", "setting": "Test System: AMES SALMONELLA TYPHIMURIUM, Strain/Indicator: TA100, Metabolic Activation: RAT, LIVER, S-9, PHENOBARBITAL, Method: STANDARD PLATE", "value": "active; positive"}
    ]}
  ]
}
